Laboratory results taken from patent publication US11045489B2, “Prognostic methods and systems of treatment for acute lymphoblastic leukemia” (MOR RESEARCH APPLICATIONS LTD., priority 2014, dated 2021).

Tests used:
Nalm-6 cells [1] = test: Apoptosis by FACS in Nalm-6 cells treated with FK866; assay type: cell-based; conditions: 1 nM, 48 hours
Experimental: (§1) Nalm-6 cells were treated for 1, 3, and 6 hours with 1 nM FK866 (Sigma) and NAD^+ formation was measured using NAD assay as described. […] To measure the effect of NAD^+ depletion following FK866 treatment on Nalm-6 cells, apoptosis and viability were measured. Nalm-6 cells were treated for 48 hours with 1 nM FK866 and apoptosis was measured using FACS.

Nalm-6 cells [2] = test: Sensitivity to FK866 (NAD+ levels) of NALM-6 cells transfected with miR-451 mimic or inhibitor; assay type: cell-based; conditions: 3 hours
Experimental: The sensitivity of NALM-6 cells to the NAMPT inhibitor FK866 was measured in cells following transfection with miR-451 mimic or miR-451 inhibitor (FIG. 8). The sensitivity was measured by levels of NAD^+. […] Thus, miR-451 expression can distinguish between patients that could benefit from treatment with NAMPT inhibitors, such as FK866.

Nalm-6 cells [3] = test: NAD assay in Nalm-6 cells treated with FK866; assay type: cell-based; conditions: 1 nM, 1, 3 and 6 hours
Experimental: (§2) NAMPT is the rate-limiting enzyme in the NAD^+ biosynthetic pathway. Thus, NAD^+ levels in the stimulated cells were measured using a standard NAD^+ assay (Biovision NADH/NAD Quantification Kit).
as §1

cellular NAD^+ levels = test: NAD+ assay in TPA stimulated cells; assay type: cell-based
Experimental: as §2

NAMPT [4] = test: NAMPT expression by FACS after TPA treatment; assay type: cell-based; conditions: Peripheral blood cells, 50 ng/ml TPA, 24 hours
Experimental: Studies by several investigators have shown that 12-0-tetradecanoylphorbol-13-acetate (TPA) (Sigma) is an extraordinarily potent tumor promoter and stimulates protein kinase C (PKC). Since NAMPT is over-expressed in several tumors, it was believed that it might be possible to achieve NAMPT stimulation by TPA treatment. To test this hypothesis. Peripheral blood cells were treated with 50 ng/ml TPA for 24 hours and NAMPT expression was measured by FACS using a specific NAMPT antibody.

NAMPT 3′-UTR = test: Luciferase reporter assay with NAMPT 3′-UTR; assay type: cell-based; conditions: P<0.05
Experimental: To confirm that NAMPT is a direct target of miR-451, luciferase reporter vectors were generated that contained the NAMPT 3′-UTR (LightSwitch NAMPT 3′UTR Reporter GoClone). Luciferase reporter assays (LightSwitch Luciferase Assay; SwitchGear) were then performed in the presence and absence of miR-451mimic and inhibitor to determine whether NAMPT was a direct downstream target of miR-451. The relative luciferase activity of the reporter that contained NAMPT 3′-UTR was decreased in 80% when miR-451 mimics were transfected.

NAMPT [5] = test: NAMPT expression by FACS in transfected Nalm-6 cells; assay type: cell-based; conditions: P<0.05
Experimental: To determine the effects of miR-451 on NAMPT expression, Nalm-6 cells were transfected with miR-451 mimic (SEQ ID NO: 2) and miR-451 inhibitor (GeneCopoeia miArrest miR-451, an inhibitor expression clone) and NAMPT expression was measured by FACS analysis using a specific NAMPT antibody.

Nalm-6 cells [6] = test: Tumor growth of transfected Nalm-6 cells injected s.c. into NOD/SCID mice; assay type: in vivo
Experimental: To further study the putative tumor-suppressive function of hsa-miR-451 in vivo, 10^7 viable Nalm-6 untransfected cells, transfected in vitro with miR-451, or transfected with scrambled control nucleic acid, were injected s.c. into the right flanks of 6-week-old female NOD/SCID mice. […] On day 26, the median tumor volume in the scrambled control mice and the miR-451 mice were 204.69 mm^3 (SE=63.96) and 23.32 mm^3 (SE=13.12) respectively (P=0.019). At the end of the experiment mice were sacrificed and the tumors were weighted. The median tumor weight in the scrambled control mice and the miR-451 mice were 0.0966 gr (SE=0.040) and 0.0159 gr (SE=0.0009) respectively (P=0.046) (FIG. 4C).

Phosphorylated STAT5 = test: Phospho-STAT5 levels by FACS in transfected NALM-6 cells; assay type: cell-based; conditions: NALM-6 cell line
Experimental: Phosphorylated STAT5 (phospho-STAT5) levels were measured by FACS analysis following transfection of miR-1290 mimic (overexpression) into NALM-6 cell line. An increase of 50% in the levels of pSTAT5 protein is evident in the cells expressing high levels of miR-1290 (FIG. 11).

SOCS4 = SOCS4 protein levels by Western blotting in transfected Nalm6 cells; assay type: cell-based; conditions: Nalm6 cell line, over-expression of miR-1290, Western blotting
Experimental: Following transfection of miR-1290 mimic (SEQ ID NO: 4, over-expression), miR-1290 inhibitor (SEQ ID NO: 5, silencing), and miR-scramble (control), into the Nalm6 cell line, the protein levels of SOCS4 were measured using Western blotting (p=0.029; FIG. 9). The values shown in the figure are mean±S.D from 3 experiments.

## O=C(/C=C/c1cccnc1)NCCCCC1CCN(C(=O)c2ccccc2)CC1 [FK866]
Nalm-6 cells [1]
  apoptosis: induced apoptosis
Nalm-6 cells [2]; Nalm-6/miR-451 cells (miR-451 mimic)
  change in NAD+ production after FK866 treatment compared to Nalm-6/miR-NC: less change
Nalm-6 cells [2]; Nalm-6/miR-inhibitor cells, p=0.003
  change in NAD+ production after FK866 treatment compared to Nalm-6/miR-NC: more than 5 fold
Nalm-6 cells [3]
  NAD^+ detection following treatment: gradual decrease

## CCCCCCCCCCCCCC(=O)O[C@@H]1[C@@H](C)[C@@]2(O)[C@@H](C=C(CO)C[C@]3(O)C(=O)C(C)=C[C@@H]23)[C@H]2C(C)(C)[C@]12OC(C)=O [TPA, 12-0-tetradecanoylphorbol-13-acetate]
Cellular NAD^+ levels
  cellular NAD^+ levels higher: 2 fold
NAMPT [4]
  increase in NAMPT expression levels: more than 4 folds

## miR-451 mimic: miR-451 mimic (SEQ ID NO: 2) transfected into Nalm-6 cells by electroporation (AAACCGUUACCAUUACUGAGUU; listed as RNA, chemistry not given here; listed as Homo sapiens)
NAMPT 3′-UTR
  relative luciferase activity of NAMPT 3′-UTR reporter decreased: 80%
NAMPT [5]
  NAMPT protein expression decreased by: 46%
Nalm-6 cells [6]; NOD/SCID mice, Nalm-6/miR-451 cells s.c., versus scrambled miR control
  tumor growth: significantly decreased tumor growth
Nalm-6 cells [6]; day 26, NOD/SCID mice, Nalm-6 cells transfected in vitro, P=0.019 vs scrambled control
  median tumor volume: 23.32 mm^3
Nalm-6 cells [6]; end of the experiment, NOD/SCID mice, P=0.046 vs scrambled control
  median tumor weight: 0.0159 gr

## miR-1290 mimic: miR-1290 mimic (SEQ ID NO: 4, over-expression) transfected into Nalm6 cell line (UGGAUUUUUGGAUCACCUGAUCCAAAAAU; listed as RNA, chemistry not given here)
Phosphorylated STAT5
  increase in the levels of pSTAT5 protein: 50%
SOCS4
  SOCS4 protein levels: down-regulation
